Measured values: the supplement of paper PMC11208160

Test: recombinant UMI read abundance after kanamycin selection (control-corrected) (log10(CPM+1)); higher = more efficient recombination; extreme values may be limits of the assay; sequences stand for … in AGTGCAGAGAAAATCGGCCAGTTTTCTCTGCCTGCAGTCCGCATGCCGTGGGACCCCTTGGGTTCTAACCTGTTGCCTAGATTTATGCAGCGGACTGCCTTTCTCCCAAAGTGATAAACCGG…AGGTTGGTTTCACT; site = the 11-nt donor
Summary of the method: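 Two replicates each of selected and unselected plating were used in this pooled Escherichia coli screen of donor and donor-binding-loop pairs for the IS621 bridge recombinase. Selection was with IPTG (0.07 mM) and kanamycin. Counts of recombinant UMIs, amplified across the donor–target junction, were converted to CPM, averaged, scaled by control-derived factors and reported as log10(CPM+1).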
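Also: IS621 bridge recombinase in Escherichia coli cells against a fixed T5 target plasmid.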

Sequence | recombinant UMI read abundance (log10)
GTGGTGGCATGGACCGGTTTTCCCGGTAATCCGTATTTGTG (site GTGGGGGCTCA) | 0.0222
GTGGTGGCATGGACCGGTTTTCCCGGTAATCCGTATTTGTG (site GTGGTGGCTCA) | 0.992
GTGTCCGCATGGACCGGTTTTCCCGGTAATCCGTATTTGGC (site GTGTCCGCTGC) | 2.26
GTGTGGGCATGGACCGGTTTTCCCGGTAATCCGTATTTGAG (site GTGTGGGCTCT) | 1.21
GTGTTACCATGGACCGGTTTTCCCGGTAATCCGTATTTGGT (site GTGTTACCTAC) | 0
GTGTTATCATGGACCGGTTTTCCCGGTAATCCGTATTTGCT (site GTGTTATCTAG) | 2.87
GTTACACCATGGACCGGTTTTCCCGGTAATCCGTATTTGGC (site GTTACACCTGC) | 0
GTTAGAACATGGACCGGTTTTCCCGGTAATCCGTATTTGAC (site GTTAGAACTGA) | 0.0146
GTTAGAACATGGACCGGTTTTCCCGGTAATCCGTATTTGAC (site GTTAGAACTGC) | 0.0153
GTTAGAACATGGACCGGTTTTCCCGGTAATCCGTATTTGAC (site GTTAGAACTGG) | 0
GTTAGAACATGGACCGGTTTTCCCGGTAATCCGTATTTGAC (site GTTAGAACTGT) | 1.89
GTTAGAACATGGACCGGTTTTCCCGGTAATCCGTATTTGGA (site GTTAGAACTAC) | 0.00435
GTTAGAACATGGACCGGTTTTCCCGGTAATCCGTATTTGGA (site GTTAGAACTCC) | 0.0329
GTTAGAACATGGACCGGTTTTCCCGGTAATCCGTATTTGGA (site GTTAGAACTGC) | 0
GTTAGAACATGGACCGGTTTTCCCGGTAATCCGTATTTGGA (site GTTAGAACTTC) | 0.178
GTTAGAGCATGGACCGGTTTTCCCGGTAATCCGTATTTGTG (site GTTAGAGCTCA) | 1.74
GTTAGGACATGGACCGGTTTTCCCGGTAATCCGTATTTGAG (site GTTAGGACTCT) | 1.83
GTTATCCCATGGACCGGTTTTCCCGGTAATCCGTATTTGGC (site GTTATCCCTGC) | 0
GTTCAAGCATGGACCGGTTTTCCCGGTAATCCGTATTTGCA (site GTTCAAGCTTG) | 1.62
GTTCAAGCATGGACCGGTTTTCCCGGTAATCCGTATTTGCA (site GTTCCAGCTTG) | 0
GTTCAAGCATGGACCGGTTTTCCCGGTAATCCGTATTTGCA (site GTTCGAGCTTG) | 0
GTTCAAGCATGGACCGGTTTTCCCGGTAATCCGTATTTGCA (site GTTCTAGCTTG) | 0
GTTCGAGCATGGACCGGTTTTCCCGGTAATCCGTATTTGAT (site GTTCGAGCTAT) | 1.75
GTTCGATCATGGACCGGTTTTCCCGGTAATCCGTATTTGCA (site GTTCGAACTTG) | 0
GTTCGATCATGGACCGGTTTTCCCGGTAATCCGTATTTGCA (site GTTCGACCTTG) | 0

Sequence | recombinant UMI read abundance (log10)
GTTCGATCATGGACCGGTTTTCCCGGTAATCCGTATTTGCA (site GTTCGAGCTTG) | 0.00436
GTTCGATCATGGACCGGTTTTCCCGGTAATCCGTATTTGCA (site GTTCGATCTTG) | 2.08
GTTCTCCCATGGACCGGTTTTCCCGGTAATCCGTATTTGCG (site GTTCTCCCTCG) | 0.002
GTTGACACATGGACCGGTTTTCCCGGTAATCCGTATTTGAA (site GTTGACACTTT) | 0.918
GTTGACACATGGACCGGTTTTCCCGGTAATCCGTATTTGGG (site GTTGACACTCC) | 0.371
GTTGAGCCATGGACCGGTTTTCCCGGTAATCCGTATTTGTG (site GTTGAGCCTCA) | 0.033
GTTGAGGCATGGACCGGTTTTCCCGGTAATCCGTATTTGTG (site GTAGAGGCTCA) | 1.5
GTTGAGGCATGGACCGGTTTTCCCGGTAATCCGTATTTGTG (site GTCGAGGCTCA) | 0.879
GTTGAGGCATGGACCGGTTTTCCCGGTAATCCGTATTTGTG (site GTGGAGGCTCA) | 0.355
GTTGAGGCATGGACCGGTTTTCCCGGTAATCCGTATTTGTG (site GTTGAGGCTCA) | 1.07
GTTGATCCATGGACCGGTTTTCCCGGTAATCCGTATTTGGT (site GTTGATCCTAC) | 0.00442
GTTGATCCATGGACCGGTTTTCCCGGTAATCCGTATTTGGT (site GTTGCTCCTAC) | 0.0151
GTTGATCCATGGACCGGTTTTCCCGGTAATCCGTATTTGGT (site GTTGGTCCTAC) | 0.0158
GTTGATCCATGGACCGGTTTTCCCGGTAATCCGTATTTGGT (site GTTGTTCCTAC) | 0.011
GTTGCAACATGGACCGGTTTTCCCGGTAATCCGTATTTGCC (site GTTGCAACTGG) | 0
GTTGCCTCATGGACCGGTTTTCCCGGTAATCCGTATTTGGA (site GTTGCCTCTTC) | 1.21
GTTGCTCCATGGACCGGTTTTCCCGGTAATCCGTATTTGGT (site GTTGATCCTAC) | 0
GTTGCTCCATGGACCGGTTTTCCCGGTAATCCGTATTTGGT (site GTTGCTCCTAC) | 0.00908
GTTGCTCCATGGACCGGTTTTCCCGGTAATCCGTATTTGGT (site GTTGGTCCTAC) | 0.0466
GTTGCTCCATGGACCGGTTTTCCCGGTAATCCGTATTTGGT (site GTTGTTCCTAC) | 0.0159
GTTGCTGCATGGACCGGTTTTCCCGGTAATCCGTATTTGGC (site GTTGCTGCTGC) | 0.902
GTTGGAACATGGACCGGTTTTCCCGGTAATCCGTATTTGGC (site GTTAGAACTGC) | 1.13
GTTGGAACATGGACCGGTTTTCCCGGTAATCCGTATTTGGC (site GTTCGAACTGC) | 0
GTTGGAACATGGACCGGTTTTCCCGGTAATCCGTATTTGGC (site GTTGGAACTGC) | 2.55
GTTGGAACATGGACCGGTTTTCCCGGTAATCCGTATTTGGC (site GTTTGAACTGC) | 0

Sequence | recombinant UMI read abundance (log10)
GTTGGAGCATGGACCGGTTTTCCCGGTAATCCGTATTTGCA (site GTTAGAGCTTG) | 2.17
GTTGGAGCATGGACCGGTTTTCCCGGTAATCCGTATTTGCA (site GTTCGAGCTTG) | 0
GTTGGAGCATGGACCGGTTTTCCCGGTAATCCGTATTTGCA (site GTTGGAGCTTG) | 2.49
GTTGGAGCATGGACCGGTTTTCCCGGTAATCCGTATTTGCA (site GTTTGAGCTTG) | 0.659
GTTGGTCCATGGACCGGTTTTCCCGGTAATCCGTATTTGGT (site GTTGATCCTAC) | 0.0104
GTTGGTCCATGGACCGGTTTTCCCGGTAATCCGTATTTGGT (site GTTGCTCCTAC) | 0.00872
GTTGGTCCATGGACCGGTTTTCCCGGTAATCCGTATTTGGT (site GTTGGTCCTAC) | 0.0121
GTTGGTCCATGGACCGGTTTTCCCGGTAATCCGTATTTGGT (site GTTGTTCCTAC) | 0.00359
GTTGTTCCATGGACCGGTTTTCCCGGTAATCCGTATTTGGA (site GTTGTTCCTAC) | 0
GTTGTTCCATGGACCGGTTTTCCCGGTAATCCGTATTTGGA (site GTTGTTCCTCC) | 0.00995
GTTGTTCCATGGACCGGTTTTCCCGGTAATCCGTATTTGGA (site GTTGTTCCTGC) | 0
GTTGTTCCATGGACCGGTTTTCCCGGTAATCCGTATTTGGA (site GTTGTTCCTTC) | 0.0132
GTTTAGCCATGGACCGGTTTTCCCGGTAATCCGTATTTGGC (site GTTTAGCCTGC) | 0
GTTTATCCATGGACCGGTTTTCCCGGTAATCCGTATTTGCT (site GATTATCCTAG) | 0
GTTTATCCATGGACCGGTTTTCCCGGTAATCCGTATTTGCT (site GCTTATCCTAG) | 0
GTTTATCCATGGACCGGTTTTCCCGGTAATCCGTATTTGCT (site GGTTATCCTAG) | 0
GTTTATCCATGGACCGGTTTTCCCGGTAATCCGTATTTGCT (site GTTTATCCTAG) | 0.492
GTTTCGGCATGGACCGGTTTTCCCGGTAATCCGTATTTGGG (site CGGGGCACTAA) | 0.0198
GTTTGAACATGGACCGGTTTTCCCGGTAATCCGTATTTGGC (site GTTAGAACTGC) | 0
GTTTGAACATGGACCGGTTTTCCCGGTAATCCGTATTTGGC (site GTTCGAACTGC) | 0
GTTTGAACATGGACCGGTTTTCCCGGTAATCCGTATTTGGC (site GTTGGAACTGC) | 0
GTTTGAACATGGACCGGTTTTCCCGGTAATCCGTATTTGGC (site GTTTGAACTGC) | 0
GTTTGCACATGGACCGGTTTTCCCGGTAATCCGTATTTGCA (site GTTTGCACTTG) | 0.292
GTTTGGACATGGACCGGTTTTCCCGGTAATCCGTATTTGGA (site GTTTGGACTTC) | 0.0184
TAAAACTCATGGACCGGTTTTCCCGGTAATCCGTATTTGGG (site TAAAACTCTCC) | 0.00919
